Results on one molecule are retold here after BindingDB's records for doi:10.1016/j.bmcl.2008.04.069 (Bristol-Myers Squibb, 2008).

In general, IC50 refers to the concentration that inhibits the measured activity by half.

The target in the assay is T1, 11-beta-hydroxysteroid dehydrogenase 1 [23-292,A23S,F278E] (Homo sapiens, UniProt P28845, A23S/F278E).
T1 construct: 23-292
Nature of the assay: Scintillation Proximity Assay (SPA). As to conditions: pH 6.5; 23 °C.

T1 sequence (P28845 as listed by the source A23S/F278E): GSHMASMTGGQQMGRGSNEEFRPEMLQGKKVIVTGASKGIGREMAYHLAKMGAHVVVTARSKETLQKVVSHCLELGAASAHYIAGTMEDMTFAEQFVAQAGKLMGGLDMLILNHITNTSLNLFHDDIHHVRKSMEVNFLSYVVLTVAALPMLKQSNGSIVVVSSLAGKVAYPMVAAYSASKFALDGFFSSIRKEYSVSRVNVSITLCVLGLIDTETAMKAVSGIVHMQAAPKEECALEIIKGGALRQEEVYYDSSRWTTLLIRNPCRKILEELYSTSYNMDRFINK
Experimental: 11beta-HSD1 microsomes isolated from HEK 293 cells over-expressing human 11beta-HSD1 were incubated with the substrate cortisone and cofactor NADPH at room temperature. The reactions were terminated with the addition of a nonspecific 11beta-HSD1 inhibitor (18beta-glycyrrhetinic acid). The product cortisol was quantified in an immuno-competition SPA wherein the [3H]-cortisol bound to anti-rabbit antibody Yitrium silicate SPA beads coated with polyclonal anti-cortisol antibody was competed by cortisol produced in the reaction, and the reaction mixture was read in a scintillation plate reader (TopCount). The amount of cortisol was determined from a cortisol standard curve.

In turn, `O=C(c1cncc(CS(=O)(=O)c2c(Cl)cccc2Cl)c1)N1CCOCC1` [pyridine amide, 26] displayed an IC50 of over 10 µM.
